Test results: PMC11251039, “Harnessing cholesterol uptake of malaria parasites for therapeutic applications” (EMBO Molecular Medicine, 2024)
Where “and” joins values, the source holds several entries; their conditions need not be identical. Identical values can stand only once.

Columns and labels:
[1] = tested on: P. falciparum stage III–IV gametocytes; assay: P. falciparum gametocyte viability assay (MitoTracker, flow cytometry), stage III-IV; format: cell-based, Plasmodium falciparum; settings: 48 h; for Gametocyte stage III-IV viability, percentage of control: replicate values, source data Fig. 2C
Description: (§1) Gametocyte assays commenced seven days (stage III–IV) or ten days (stage V) post-invasion. […]
(§2) Plasmodium falciparum Gametocyte Viability Assays:
(§3) Asexual P. falciparum parasites were induced to form gametocytes as described (21).
(§4) Synchronized trophozoite-stage parasites at 2% parasitaemia were incubated overnight and […]
(§5) haematocrit maintained at 4%. On the subsequent day (designated as day 0) of gametocytogenesis, the culture containing early ring-stage parasites was first purified by sorbitol synchronisation to remove asynchronous trophozoites, and passed through a magnetic field in a sterile MACS® column in a SuperMACSTM II magnet to remove remaining late-stage parasites or later-stage gametocytes (negative selection). The culture medium was supplemented with 50 mM N-acetyl-D-glucosamine to inhibit asexual parasite proliferation, and changed daily. Sorbitol treatment was performed on Day 1, 5, and 6 to further remove asexual parasites. Gametocytes were magnetically enriched (positive selection) in a sterile column with a SuperMACSTM II magnet and eluted in culture media with 50 mM N-acetyl-D-glucosamine. These gametocytes were incubated overnight at 37 °C under microaerophilic conditions, and purity was assessed by examination under a light microscope (400× […]
(§6) Gametocyte viability was assessed as described by Ridgway et al. (21) with modifications.
(§7) Compounds or solvent controls (DMSO) were serially diluted across 96-well plates in culture media supplemented with 50 mM N-acetyl-D-glucosamine. Culture media without compound was used as a negative control. […]
(§8) control to determine background gametocyte fluorescence. Stage III-IV gametocytes (Day 7) or stage V (day 10) gametocytes were concentrated and added to the plate with 200 µL per well. The plate was incubated for 48 hours at 37 °C under humid microaerophilic conditions.
(§9) Parasites were then stained with 500 nM MitoTrackerTM Deep Red FM and 5 μg/ml Hoechst […]
(§10) cytometer as described above. […]
(§11) excluded. Live (positive) and dead (negative) gametocytes were differentiated by […]
(§12) percentage of each was calculated. […]

[2] = tested on: human hepatoma cells (Huh7); assay: Human hepatoma viability assay (CellTiter-Blue); format: cell-based; settings: for Huh7 viability, dose-response data points (Figure 3F): replicate data points
Description: Huh7 hepatoma viability assays were conducted in the same manner as the P. berghei assays, with metabolic capacity (indicating viability) measured with a fluorescence microplate reader after incubation with CellTiter-Blue® (Promega) for 3 h.
Appendix Fraser/Curtis et al. […]
Human Hepatoma Viability Assays:
The Huh7 hepatoma cell line (ATCC) was maintained under routine culture conditions in Dulbecco's Modified Eagle Medium (DMEM) containing 3.7 g/L NaHCO3 supplemented with 10% foetal bovine serum (FBS), 100 units/mL penicillin, and 100 μg/mL streptomycin at 37 °C in a humidified 5% CO2 incubator.
Viability assays were performed in parallel to the P. berghei growth inhibition. 10,000 Huh7 cells were seeded in 96-well and dark-sided microplates (Greiner Bio One) and cultured at 37°C, 5% CO2 and 80% humidity. The next day, the media was replaced with compounds or solvent controls (DMSO) serially diluted in culture media. Media was partially replaced with new drug dilutions over the following two days. After 48 hours, CellTiter-Blue® (Promega) was added according to the manufacturer’s instructions and incubated for 3 hours. Fluorescence intensity was measured with 530/25 ex and 590/20 em in a Synergy HTX plate reader (Agilent).

[3] = tested on: human foreskin fibroblasts (HFF); assay: Human foreskin fibroblast growth inhibition assay (SYBR Safe); format: cell-based; settings: 72 h
Description: HFF cell growth inhibition assays commenced by adding 5000 cells to each well of a 96-well plate. 10 µg/mL cycloheximide was used as a no-growth control. DNA replication (indicating growth) was measured at the specified time using SYBR Safe DNA Gel Stain (Invitrogen 33102) and a fluorescence microplate reader. […]
Human Foreskin Fibroblast Growth Inhibition Assays:
The HFF cell line was maintained under routine culture conditions in DMEM containing 3.7 g/L NaHCO3 supplemented with 10% v/v newborn calf serum (NCS), 50 units/mL penicillin, 50 μg/mL streptomycin, 10 μg/mL gentamicin, 0.25 μg/mL amphotericin B, and 0.2 mM L-glutamine at 37 °C in a humidified 5% CO2 incubator. […]
HFF cells were detached from a flask using 0.25% Trypsin with 0.2 g/L EDTA (Sigma T4049) and washed with culture media. Cells were incubated with a serial dilution of each compound, or media/DMSO alone. Cycloheximide at 10 µg/mL was used as a positive control to determine background fluorescence. Approximately 5 000 cells were seeded in each well. Plates were incubated at 37 °C for 72 hours (until reaching confluency) and the media was removed. Plates were transferred to a -18 °C freezer. Plates were thawed and SYBR Safe DNA Gel Stain (final concentration 1/10,000) diluted in lysis buffer (as above) was added. Fluorescence was read at 490 nm excitation/ 520 nm emission on a FLUOstar Optima fluorescence plate reader. […]

[4] = tested on: P. falciparum stage V gametocytes; assay: P. falciparum gametocyte viability assay (MitoTracker, flow cytometry), stage V; format: cell-based, Plasmodium falciparum; settings: 48 h; for Gametocyte stage V viability, percentage of control: replicate values, source data Fig. 2D
Description: as §1, §2, §3, §4, §5, §6, §7, §8, §9, §10, §11, §12

[5] = 1.562500000 uM, listed as HJB8a53, 1.5625 µM
[6] = 50.000000000 uM, listed as HJB8a53, 50 µM
[7] = 100.000000000 uM, listed as HJB8a53, 100 µM

CC(C)OC(=O)CCC(=O)O[C@H]1CC[C@H]2[C@@H]3CC=C4C[C@@H](O)CC[C@]4(C)[C@H]3CC[C@]12C [C-17-link]
Gametocyte stage III-IV viability, percentage of control [1, 5]: 101% and 107% and 102.8% and 99.18% (2×) and 99.4% and 102.9% and 101.9% and 93.96% and 97.92% and 98.49%
Gametocyte stage III-IV viability, percentage of control ([1]; 3.125000000 uM, listed as HJB8a53, 3.125 µM): 105.6% and 102% and 105.7% and 98.51% and 101.4% and 101.9% (2×) and 99.18% and 90.27% and 91.12% and 94.52%
Gametocyte stage III-IV viability, percentage of control ([1]; 6.250000000 uM, listed as HJB8a53, 6.25 µM): 99.6% and 103.8% and 106.8% and 101.2% and 104.3% and 103.3% and 101% and 100.8% and 93.96% and 96.79% and 98.77%
Gametocyte stage III-IV viability, percentage of control ([1]; 12.500000000 uM, listed as HJB8a53, 12.5 µM): 107.8% and 104% and 107.2% and 101.4% and 104.1% (2×) and 102.9% and 101% and 94.24% and 97.07% and 99.62%
Gametocyte stage III-IV viability, percentage of control ([1]; 25.000000000 uM, listed as HJB8a53, 25 µM): 98.8% and 98.2% and 107.2% and 103.9% and 105.9% and 102.5% and 102.3% and 103.5% and 88.86% and 88.57% and 89.42%
Gametocyte stage III-IV viability, percentage of control [1, 6]: 91.61% and 97.2% and 99.4% and 103.4% and 99.63% and 101% and 91.35% and 89.5% and 90.53% and 84.89% and 81.49% and 79.23%
Gametocyte stage III-IV viability, percentage of control [1, 7]: 87.57% and 87.36% and 83.7% and 97.18% and 90.82% and 86.32% and 9.91% and 5.752% and 9.494% and 21.99% and 34.89% and 34.32%
viability at 1.5625 µM ([1]; Plasmodium falciparum, read-out: Gametocyte stage III-IV viability, percentage of control, 1.562500000 uM, 48 h, replicate values, source data Fig. 2C): 94.6%
viability at 3.125 µM ([1]; Plasmodium falciparum, read-out: Gametocyte stage III-IV viability, percentage of control, 3.125000000 uM, 48 h, replicate values, source data Fig. 2C): 94.6%
viability at 6.25 µM ([1]; Plasmodium falciparum, read-out: Gametocyte stage III-IV viability, percentage of control, 6.250000000 uM, 48 h, replicate values, source data Fig. 2C): 98.6%
viability at 12.5 µM ([1]; Plasmodium falciparum, read-out: Gametocyte stage III-IV viability, percentage of control, 12.500000000 uM, 48 h, replicate values, source data Fig. 2C): 99.8%
viability at 25 µM ([1]; Plasmodium falciparum, read-out: Gametocyte stage III-IV viability, percentage of control, 25.000000000 uM, 48 h, replicate values, source data Fig. 2C): 92.6%
IC50 ([1]; Plasmodium falciparum, read-out: IC50, P. falciparum gametocyte stage III-IV inhibition, 48 h): > 100 µM
Huh7 viability, dose-response data points (Figure 3F) ([2]; 0.015241580 uM, listed as HJB8a53, 0.0152416 µM): 105.5 and 101.4 and 96.09 and 69.59 and 87 and 84.06 and 99.27 and 98.63 and 104.2
Huh7 viability, dose-response data points (Figure 3F) ([2]; 0.045724740 uM, listed as HJB8a53, 0.0457247 µM): 109.3 and 93.77 and 96.82 and 77.36 and 91.83 and 83.31 and 95.97 and 106.5 and 102.9
Huh7 viability, dose-response data points (Figure 3F) ([2]; 0.137174210 uM, listed as HJB8a53, 0.137174 µM): 96.08 and 92.35 and 97.06 and 75.41 and 90.39 and 89.79 and 95.73 and 112.9 and 104.7
Huh7 viability, dose-response data points (Figure 3F) ([2]; 0.411522630 uM, listed as HJB8a53, 0.411523 µM): 96.93 and 97.72 and 96.92 and 63.65 and 105.3 and 104.5 and 106.5 and 105.9 and 105.2
Huh7 viability, dose-response data points (Figure 3F) ([2]; 1.234567900 uM, listed as HJB8a53, 1.23457 µM): 100.4 and 99.21 and 88.68 and 67.97 and 84.85 and 96.13 and 101.8 and 95.29 and 104.3
Huh7 viability, dose-response data points (Figure 3F) ([2]; 3.703703700 uM, listed as HJB8a53, 3.7037 µM): 100.3 and 96.61 and 91.24 and 63.53 and 95.92 and 87.81 and 99.75 and 109.9 and 102.3
Huh7 viability, dose-response data points (Figure 3F) ([2]; 11.111111100 uM, listed as HJB8a53, 11.1111 µM): 99.33 and 105.1 and 91.64 and 77.62 and 94.71 and 84.32 and 94.43 and 111.6 and 102.6
Huh7 viability, dose-response data points (Figure 3F) ([2]; 33.333333300 uM, listed as HJB8a53, 33.3333 µM): 96.9 and 100.5 and 93.64 and 75.36 and 80.99 and 87.75 and 88.68 and 89.18 and 95.7
Huh7 viability, dose-response data points (Figure 3F) [2, 7]: 79.4 and 72.92 and 76.08 and 55.81 and 65.46 and 66.75 and 56.01 and 61.1 and 53.13
Cytotoxicity to human hepatoma cells ([2]; 48 h, up to 100 µM): only modest cytotoxicity at high concentrations (>30 µM)
IC50 ([2]; Homo sapiens, Huh-7, 48 h, read-out: IC50, human hepatoma inhibition (viability)): > 100 µM
Inhibition of fibroblast growth ([3]; HFF): no notable inhibition
IC50 ([3]; Homo sapiens, Fibroblast, read-out: IC50, human fibroblast growth inhibition): > 75 µM
Gametocyte stage V viability, percentage of control [4, 5]: 100.2% and 98.56% and 92.55% and 112.8% and 114.5% and 98.06% and 102.7% and 106.9% and 101%
Gametocyte stage V viability, percentage of control [4, 6]: 69.57% and 81.64% and 85.27%
Gametocyte stage V viability, percentage of control [4, 7]: 29.13% and 28.63% and 16.49% and 6.64% and 5.637% and 3.021% and 27.44% and 23.3% and 20.39%
viability at 6.25 µM ([4]; Plasmodium falciparum, read-out: Gametocyte stage V viability, percentage of control, 6.250000000 uM, 48 h, replicate values, source data Fig. 2D): 102%
viability at 12.5 µM ([4]; Plasmodium falciparum, read-out: Gametocyte stage V viability, percentage of control, 12.500000000 uM, 48 h, replicate values, source data Fig. 2D): 96.4%
IC50 ([4]; Plasmodium falciparum, read-out: IC50, P. falciparum gametocyte stage V inhibition): 69.9 µM
